Measurements: ChEMBL document CHEMBL3885861, “Open TG-GATES”

Species on record: Rattus norvegicus
Assay: Open TG-GATES - Regimen: Single
Assay type: toxicity, organism-based, Sprague-Dawley
Parameters: regimen Single, gender Male, age 6 weeks
Details: in vivo, po, route gavage; for Bas / Eos / Fbg / Lym / Mono / RBC / Ret / WBC: tissue Blood; for KIDNEY_L / KIDNEY_R / KIDNEY_TOTAL: tissue Kidney
[1] = 60 mg/kg, 3 h, dose level Middle
[2] = 60 mg/kg, 3 h, tissue Plasma, dose level Middle
[3] = 60 mg/kg, 6 h, dose level Middle
[4] = 60 mg/kg, 6 h, tissue Plasma, dose level Middle
[5] = 60 mg/kg, 9 h, dose level Middle
[6] = 60 mg/kg, 9 h, tissue Plasma, dose level Middle
[7] = 60 mg/kg, 24 h, dose level Middle
[8] = 60 mg/kg, 24 h, tissue Plasma, dose level Middle
[9] = 200 mg/kg, 3 h, dose level High
[10] = 200 mg/kg, 3 h, tissue Plasma, dose level High
[11] = 200 mg/kg, 6 h, dose level High
[12] = 200 mg/kg, 6 h, tissue Plasma, dose level High
[13] = 200 mg/kg, 9 h, dose level High
[14] = 200 mg/kg, 9 h, tissue Plasma, dose level High
[15] = 200 mg/kg, 24 h, dose level High
[16] = 200 mg/kg, 24 h, tissue Plasma, dose level High

C=C[C@H]1C[N@@]2CC[C@H]1C[C@@H]2[C@@H](O)c1ccnc2ccc(OC)cc12 [QUINIDINE]
Bas [1]: 0% | Eos [1]: 0.4% | Fbg [1]: 295 mg/dL | Lym [1]: 73.2% | Mono [1]: 2.6% | RBC [1]: 588 x10_4/ul | Ret [1]: 7.6% | WBC [1]: 87.1 x10_2/uL | KIDNEY_L [1]: 1 g | KIDNEY_R [1]: 1 g | KIDNEY_TOTAL [1]: 2 g | ALP [2]: 1472.8 IU/L | CRE [2]: 0.2 mg/dL | DBIL [2]: 0.002 mg/dL | IP [2]: 9.1 mg/dL | K [2]: 4 meq/L | LDH [2]: 131.2 IU/L | Na [2]: 140.6 meq/L | PL [2]: 148.2 mg/dL | RALB [2]: 2.9 g/dL | TBIL [2]: 0.026 mg/dL | TG [2]: 56.2 mg/dL | TP [2]: 5.2 g/dL | gamma-GTP [2]: 2.2 IU/L | TERMINAL_BW [3]: 218.5 g | Bas [3]: 0% | Eos [3]: 0.8% | Fbg [3]: 301.2 mg/dL | Lym [3]: 79.8% | Mono [3]: 2.2% | RBC [3]: 623.4 x10_4/ul | Ret [3]: 6.6% | WBC [3]: 77.2 x10_2/uL | KIDNEY_L [3]: 1 g | KIDNEY_R [3]: 1 g | KIDNEY_TOTAL [3]: 2 g | ALP [4]: 1426.2 IU/L | CRE [4]: 0.2 mg/dL | DBIL [4]: 0.002 mg/dL | IP [4]: 9.1 mg/dL | K [4]: 4.3 meq/L | LDH [4]: 136.2 IU/L | Na [4]: 142.6 meq/L | PL [4]: 149.4 mg/dL | RALB [4]: 3 g/dL | TBIL [4]: 0.022 mg/dL | TG [4]: 83.2 mg/dL | TP [4]: 5.3 g/dL | gamma-GTP [4]: 1.4 IU/L | TERMINAL_BW [5]: 207.3 g | Bas [5]: 0% | Eos [5]: 0.8% | Fbg [5]: 300 mg/dL | Lym [5]: 77% | Mono [5]: 1.6% | RBC [5]: 622.8 x10_4/ul | Ret [5]: 6.8% | WBC [5]: 59.2 x10_2/uL | KIDNEY_L [5]: 1 g | KIDNEY_R [5]: 1 g | KIDNEY_TOTAL [5]: 2 g | ALP [6]: 1460.8 IU/L | CRE [6]: 0.2 mg/dL | DBIL [6]: 0.002 mg/dL | IP [6]: 9.6 mg/dL | K [6]: 4.4 meq/L | LDH [6]: 141.8 IU/L | Na [6]: 143.8 meq/L | PL [6]: 139.8 mg/dL | RALB [6]: 3 g/dL | TBIL [6]: 0.024 mg/dL | TG [6]: 74 mg/dL | TP [6]: 5.4 g/dL | gamma-GTP [6]: 1 IU/L | TERMINAL_BW [7]: 225.2 g | Bas [7]: 0% | Eos [7]: 0.8% | Fbg [7]: 337.8 mg/dL | Lym [7]: 72.4% | Mono [7]: 3.4% | RBC [7]: 650.2 x10_4/ul | Ret [7]: 6.9% | WBC [7]: 95.3 x10_2/uL | KIDNEY_L [7]: 1 g | KIDNEY_R [7]: 1 g | KIDNEY_TOTAL [7]: 2 g | ALP [8]: 1697 IU/L | CRE [8]: 0.1 mg/dL | DBIL [8]: 0 mg/dL | IP [8]: 8.1 mg/dL | K [8]: 4.1 meq/L | LDH [8]: 181.4 IU/L | Na [8]: 141 meq/L | RALB [8]: 3 g/dL | TBIL [8]: 0.014 mg/dL | TP [8]: 5.6 g/dL | gamma-GTP [8]: 1.4 IU/L | TERMINAL_BW [9]: 218.1 g | Bas [9]: 0% | Eos [9]: 0.8% | Fbg [9]: 267 mg/dL | Lym [9]: 76.2% | Mono [9]: 2.2% | RBC [9]: 571.6 x10_4/ul | Ret [9]: 6.9% | WBC [9]: 60.8 x10_2/uL | KIDNEY_L [9]: 1 g | KIDNEY_R [9]: 1 g | KIDNEY_TOTAL [9]: 2 g | ALP [10]: 1429.4 IU/L | CRE [10]: 0.2 mg/dL | DBIL [10]: 0.002 mg/dL | GLC [10]: 172 mg/dL | IP [10]: 9.1 mg/dL | K [10]: 4 meq/L | LDH [10]: 121 IU/L | Na [10]: 140.6 meq/L | PL [10]: 126.8 mg/dL | RALB [10]: 2.9 g/dL | TBIL [10]: 0.02 mg/dL | TC [10]: 66.2 mg/dL | TG [10]: 46.8 mg/dL | TP [10]: 5.1 g/dL | gamma-GTP [10]: 1.4 IU/L | TERMINAL_BW [11]: 221.5 g | Bas [11]: 0% | Eos [11]: 0.8% | Fbg [11]: 318.2 mg/dL | Lym [11]: 76.4% | Mono [11]: 2.2% | RBC [11]: 584.8 x10_4/ul | Ret [11]: 7.5% | WBC [11]: 76 x10_2/uL | KIDNEY_L [11]: 1 g | KIDNEY_R [11]: 1 g | KIDNEY_TOTAL [11]: 2 g | ALP [12]: 1392.8 IU/L | CRE [12]: 0.2 mg/dL | DBIL [12]: 0.004 mg/dL | IP [12]: 8.7 mg/dL | K [12]: 4.3 meq/L | LDH [12]: 181.8 IU/L | Na [12]: 142 meq/L | RALB [12]: 3 g/dL | TBIL [12]: 0.024 mg/dL | TC [12]: 86.4 mg/dL | TG [12]: 55.4 mg/dL | TP [12]: 5.4 g/dL | gamma-GTP [12]: 1.2 IU/L | TERMINAL_BW [13]: 218.2 g | Bas [13]: 0% | Eos [13]: 0.8% | Fbg [13]: 309.8 mg/dL | Lym [13]: 74% | Mono [13]: 1.6% | RBC [13]: 591 x10_4/ul | Ret [13]: 6.5% | WBC [13]: 63.2 x10_2/uL | KIDNEY_L [13]: 1 g | KIDNEY_R [13]: 1 g | KIDNEY_TOTAL [13]: 2 g | ALP [14]: 1558.2 IU/L | CRE [14]: 0.1 mg/dL | DBIL [14]: 0.004 mg/dL | IP [14]: 8.9 mg/dL | K [14]: 4.4 meq/L | LDH [14]: 118.4 IU/L | Na [14]: 142.6 meq/L | PL [14]: 148.2 mg/dL | RALB [14]: 3 g/dL | TBIL [14]: 0.028 mg/dL | TG [14]: 71.6 mg/dL | TP [14]: 5.4 g/dL | gamma-GTP [14]: 1.2 IU/L | TERMINAL_BW [15]: 231.5 g | Bas [15]: 0% | Eos [15]: 0.8% | Fbg [15]: 319.6 mg/dL | Lym [15]: 74.8% | Mono [15]: 3% | RBC [15]: 633.6 x10_4/ul | Ret [15]: 7.1% | WBC [15]: 84.6 x10_2/uL | KIDNEY_L [15]: 1 g | KIDNEY_R [15]: 1.1 g | KIDNEY_TOTAL [15]: 2.1 g | ALP [16]: 1496.4 IU/L | CRE [16]: 0.1 mg/dL | DBIL [16]: 0.002 mg/dL | IP [16]: 9.1 mg/dL | K [16]: 4.1 meq/L | LDH [16]: 144.2 IU/L | Na [16]: 141 meq/L | PL [16]: 146.8 mg/dL | RALB [16]: 3 g/dL | TBIL [16]: 0.01 mg/dL | TP [16]: 5.6 g/dL | gamma-GTP [16]: 1.6 IU/L
